Laboratory results: paper PMC8524858, “Dual inhibition of αvβ6 and αvβ1 reduces fibrogenesis in lung tissue explants from patients with IPF” (Respiratory Research, 2021)
pIC50: −log10 of the molar value.

Experiments:
[1] = molecular target: T1, human integrin αvβ8 (Homo sapiens, UniProt P06756+P26012); experiment: Integrin ligand-binding assay, αvβ8 (LAP ligand)
T1 construct: purchased R&D Systems 4135-AV
Protocol: (§1) Integrin ligand-binding assays were performed similar to that previously described.
(§2) Microplates were coated with recombinant human integrins dissolved in PBS (2 µg/ml, overnight at room temperature). Following removal of the coating solution, plates were washed with PBS. Plates were blocked with 200 µL/well of blocking buffer (2% bovine serum albumin [BSA] in PBS) at 37 °C for 1 h. […] Plates were incubated for 2 h at 25 °C, washed, and incubated for 1 h with biotin-labeled anti-fibronectin or anti-LAP antibodies (for αvβ1 or αvβ6/αvβ8, respectively).

[2] = molecular target: T2, human integrin αvβ6 (Homo sapiens, UniProt P06756+P18564); experiment: Integrin ligand-binding assay, αvβ6 (LAP ligand)
T2 construct: purchased ACROBiosystems or R&D Systems IT6-H52E1 or 3817-AV
T2 sequence (P06756 31-992 limits assumed): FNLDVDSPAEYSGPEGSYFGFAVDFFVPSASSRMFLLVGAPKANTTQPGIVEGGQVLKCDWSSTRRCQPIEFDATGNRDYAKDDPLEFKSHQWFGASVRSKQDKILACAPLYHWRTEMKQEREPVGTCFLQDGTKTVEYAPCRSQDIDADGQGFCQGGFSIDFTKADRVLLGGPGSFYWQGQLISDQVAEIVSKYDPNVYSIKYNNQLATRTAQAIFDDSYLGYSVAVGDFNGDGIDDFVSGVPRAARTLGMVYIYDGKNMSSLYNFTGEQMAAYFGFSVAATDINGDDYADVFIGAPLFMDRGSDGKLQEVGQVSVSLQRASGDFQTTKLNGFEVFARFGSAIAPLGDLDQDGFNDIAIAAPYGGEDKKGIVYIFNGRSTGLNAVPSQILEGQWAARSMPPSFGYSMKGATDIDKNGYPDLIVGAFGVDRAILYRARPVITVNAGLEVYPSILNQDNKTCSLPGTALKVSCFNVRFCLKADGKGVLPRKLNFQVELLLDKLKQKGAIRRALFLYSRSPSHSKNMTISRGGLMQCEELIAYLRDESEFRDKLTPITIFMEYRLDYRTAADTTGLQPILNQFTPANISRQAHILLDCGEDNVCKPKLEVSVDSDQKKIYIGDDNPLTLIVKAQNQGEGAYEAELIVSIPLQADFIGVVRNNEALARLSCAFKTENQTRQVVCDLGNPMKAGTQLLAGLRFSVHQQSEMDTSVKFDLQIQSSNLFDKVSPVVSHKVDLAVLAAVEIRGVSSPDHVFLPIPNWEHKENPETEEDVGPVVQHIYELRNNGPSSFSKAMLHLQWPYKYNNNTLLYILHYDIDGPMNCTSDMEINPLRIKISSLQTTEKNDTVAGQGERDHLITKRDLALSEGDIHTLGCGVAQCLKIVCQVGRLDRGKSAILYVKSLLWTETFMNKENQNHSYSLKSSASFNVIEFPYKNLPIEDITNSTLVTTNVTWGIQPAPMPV
T2 sequence (P18564 22-707 limits assumed): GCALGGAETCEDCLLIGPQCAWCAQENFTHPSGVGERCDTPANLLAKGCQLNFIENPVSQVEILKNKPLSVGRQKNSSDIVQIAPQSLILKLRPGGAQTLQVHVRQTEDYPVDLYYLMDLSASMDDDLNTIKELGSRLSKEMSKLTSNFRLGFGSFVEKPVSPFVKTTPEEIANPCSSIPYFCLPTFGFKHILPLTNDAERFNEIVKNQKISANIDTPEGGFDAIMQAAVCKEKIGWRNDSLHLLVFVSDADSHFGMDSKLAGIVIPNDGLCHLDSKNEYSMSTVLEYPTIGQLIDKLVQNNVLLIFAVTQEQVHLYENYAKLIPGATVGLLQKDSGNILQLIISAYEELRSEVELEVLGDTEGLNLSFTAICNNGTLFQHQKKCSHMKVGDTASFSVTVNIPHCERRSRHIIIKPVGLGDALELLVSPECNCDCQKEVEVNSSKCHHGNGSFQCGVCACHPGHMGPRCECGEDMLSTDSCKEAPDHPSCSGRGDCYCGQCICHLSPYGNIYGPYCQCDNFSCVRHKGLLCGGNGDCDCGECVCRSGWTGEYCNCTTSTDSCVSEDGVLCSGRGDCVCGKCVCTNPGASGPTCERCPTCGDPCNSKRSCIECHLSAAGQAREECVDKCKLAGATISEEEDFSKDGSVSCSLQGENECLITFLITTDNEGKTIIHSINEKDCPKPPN
Protocol: as §1, §2

[3] = molecular target: T3, human integrin αvβ5 (Homo sapiens, UniProt P06756+P18084); experiment: Integrin ligand-binding assay, αvβ5 (vitronectin ligand)
T3 construct: purchased R&D Systems 2528-AV
T3 sequence (P06756 31-992 limits assumed): as the sequence (P06756 31-992 limits assumed) above
T3 sequence (P18084 24-719 limits assumed): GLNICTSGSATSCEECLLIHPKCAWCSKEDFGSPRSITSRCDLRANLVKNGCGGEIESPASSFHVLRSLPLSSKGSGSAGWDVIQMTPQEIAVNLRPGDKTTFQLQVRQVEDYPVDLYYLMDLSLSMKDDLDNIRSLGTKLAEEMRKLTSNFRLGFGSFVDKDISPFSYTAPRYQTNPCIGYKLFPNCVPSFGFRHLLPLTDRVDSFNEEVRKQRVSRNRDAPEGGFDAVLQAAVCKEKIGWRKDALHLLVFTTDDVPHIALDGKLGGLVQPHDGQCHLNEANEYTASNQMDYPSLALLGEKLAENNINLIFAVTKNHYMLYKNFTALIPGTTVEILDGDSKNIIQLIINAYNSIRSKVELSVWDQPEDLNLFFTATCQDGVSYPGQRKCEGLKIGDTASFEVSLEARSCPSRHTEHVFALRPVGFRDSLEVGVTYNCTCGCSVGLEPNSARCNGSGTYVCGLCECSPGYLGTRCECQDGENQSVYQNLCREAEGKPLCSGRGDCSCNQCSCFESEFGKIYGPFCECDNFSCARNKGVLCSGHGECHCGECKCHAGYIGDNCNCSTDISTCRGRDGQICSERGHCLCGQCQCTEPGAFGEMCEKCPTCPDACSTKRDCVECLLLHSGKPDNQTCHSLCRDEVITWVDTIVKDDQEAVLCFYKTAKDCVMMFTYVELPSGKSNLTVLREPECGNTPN
Protocol: as §1, §2

[4] = molecular target: T4, human integrin αvβ3 (Homo sapiens, UniProt P05106+P06756); experiment: Integrin ligand-binding assay, αvβ3 (vitronectin ligand)
T4 construct: purchased R&D Systems 3050-AV
T4 sequence (P06756 31-992 limits assumed): as the sequence (P06756 31-992 limits assumed) above
T4 sequence (P05106 27-718 limits assumed): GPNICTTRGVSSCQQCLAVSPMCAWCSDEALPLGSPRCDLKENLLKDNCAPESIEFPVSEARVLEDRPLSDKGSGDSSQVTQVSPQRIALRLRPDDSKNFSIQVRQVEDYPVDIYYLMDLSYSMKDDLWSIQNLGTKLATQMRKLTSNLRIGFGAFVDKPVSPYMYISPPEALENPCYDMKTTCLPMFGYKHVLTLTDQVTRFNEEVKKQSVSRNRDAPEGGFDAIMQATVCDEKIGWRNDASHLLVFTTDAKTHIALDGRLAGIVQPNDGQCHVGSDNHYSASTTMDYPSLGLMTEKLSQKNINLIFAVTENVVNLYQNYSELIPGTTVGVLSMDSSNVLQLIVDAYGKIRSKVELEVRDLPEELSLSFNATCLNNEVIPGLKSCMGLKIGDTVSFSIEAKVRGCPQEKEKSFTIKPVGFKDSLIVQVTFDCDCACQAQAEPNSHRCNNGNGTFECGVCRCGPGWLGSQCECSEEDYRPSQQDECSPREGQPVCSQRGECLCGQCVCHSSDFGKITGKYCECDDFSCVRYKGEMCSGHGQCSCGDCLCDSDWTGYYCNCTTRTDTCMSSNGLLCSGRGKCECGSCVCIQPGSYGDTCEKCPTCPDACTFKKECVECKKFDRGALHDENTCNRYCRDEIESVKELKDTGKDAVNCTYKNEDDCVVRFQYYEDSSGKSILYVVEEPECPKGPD
Protocol: as §1, §2

[5] = system: PCLSs prepared from bleomycin-challenged mouse lungs; experiment: Col1a1 expression in PCLSs from bleomycin-challenged mouse lungs; format: cell-based; conditions: for inhibition of collagen mRNA expression: acutely injured mouse lungs, 3 days, PLN-74809 200 nM, GSK3008348 1000 nM, CWHM-12 1000 nM (Fig. 2B); for pIC50: Mus musculus, 72 h, 3 days of treatment, extrapolation from dose-response curve of combined experiments (Fig. S4), read-out: minimum concentration required to reduce Col1a1 mRNA levels by 50%; for effect on Col1a1 gene expression: chronic bleomycin-challenged mouse lungs, 7 days of treatment, nintedanib and pirfenidone at approximate clinical Cmax (Fig. 6C); for concentration for 50% reduction in collagen gene expression relative to concentration approximating Cmax: dose titrations in PCLSs from bleomycin-challenged mouse lungs
Description: (§3) PCLSs were generated from explanted lung tissue from patients with IPF and cultured as previously described. Mouse PCLSs were generated and cultured as previously described. Messenger ribonucleic acid (mRNA) levels in lysates prepared from snap-frozen tissue slices were quantified via NanoString PlexSet reagents and nCounter SPRINT Profiler (NanoString; Seattle, WA, USA; Additional file 1: Table S2) or TaqMan primers/probes on a Bio-Rad CFX96 thermocycler (Bio-Rad; Hercules, CA, USA; Additional file 1: Table S3).
Mouse PCLSs were generated and cultured based on previously reported methods (E13). Briefly, mice were challenged with bleomycin (Hospira; Lake Forest, IL, USA or Teva; Toronto, ON, Canada), either acutely with a single dose (3 U/kg or 4 U/kg) or chronically with multiple doses (3 U/kg bleomycin followed by four 1 U/kg challenges at 2-week intervals). Fourteen days after the final bleomycin challenge, lungs were harvested and 200 μm-thick slices were cut using a Compresstome VF-300-0Z (Precisionary Instruments).
(§4) Slices from each individual core (human) or mouse were distributed among the treatment groups to control for variability in the fibrotic injury within the tissue. […] After 3 or 7 days in culture, slices were washed and snap-frozen. Viability of sentinel slices on Days 0/1 and 3/7 was determined using WST-1 Cell Proliferation Reagent (Sigma 5015944001; St Louis, MO, USA).
(§5) For all figures (except Fig. 2B, Fig. S2, and Fig. S4), snap-frozen tissue slices were incubated in one-third RLT buffer (Qiagen #79216; Venlo, Netherlands) supplemented with 2 mg/ml proteinase K (Sigma-Aldrich #3115887001; St Louis, MO, USA) at 55 °C for 2 h 45 min, with periodic vortexing to generate ribonucleic acid (RNA)-compatible tissue lysate. This lysate was incubated overnight with probes from a custom fibrosis gene panel and NanoString PlexSet reagents (Table S2). The following day, samples were analyzed on a NanoString nCounter SPRINT Profiler (NanoString; Seattle, WA, USA). Messenger RNA (mRNA) counts were normalized to housekeeping genes (GUSB, HPRT1, RPLP0, and/or POLR1B) and total mRNA counts, relative to vehicle-treated control from the same experiment, are reported.
For Figs. 2B, S2, and S4, RNA purification and qPCR were performed by Transcriptic, Inc. (Menlo Park, CA, USA) using a proprietary automated protocol. Briefly, RNA was purified on a KingFisher Flex system (Thermo Fisher) and qPCR was performed on a Bio-Rad CFX96 (Bio-Rad; Hercules, CA, USA) with TaqMan primers/probes (Thermo Fisher) listed in Table S3. Ct values were normalized to housekeeping genes (Rn18sRn45s and Hprt) and reported as ddCT and fold change versus the vehicle-treated samples.

[6] = molecular target: T5, human integrin αvβ1 (Homo sapiens, UniProt P05556+P06756); experiment: Integrin ligand-binding assay, αvβ1 (fibronectin ligand)
T5 construct: purchased ACROBiosystems or R&D Systems IT1-H52E1 or 6579-AVB
T5 sequence (P06756 31-992 limits assumed): as the sequence (P06756 31-992 limits assumed) above
T5 sequence (P05556 21-728 limits assumed): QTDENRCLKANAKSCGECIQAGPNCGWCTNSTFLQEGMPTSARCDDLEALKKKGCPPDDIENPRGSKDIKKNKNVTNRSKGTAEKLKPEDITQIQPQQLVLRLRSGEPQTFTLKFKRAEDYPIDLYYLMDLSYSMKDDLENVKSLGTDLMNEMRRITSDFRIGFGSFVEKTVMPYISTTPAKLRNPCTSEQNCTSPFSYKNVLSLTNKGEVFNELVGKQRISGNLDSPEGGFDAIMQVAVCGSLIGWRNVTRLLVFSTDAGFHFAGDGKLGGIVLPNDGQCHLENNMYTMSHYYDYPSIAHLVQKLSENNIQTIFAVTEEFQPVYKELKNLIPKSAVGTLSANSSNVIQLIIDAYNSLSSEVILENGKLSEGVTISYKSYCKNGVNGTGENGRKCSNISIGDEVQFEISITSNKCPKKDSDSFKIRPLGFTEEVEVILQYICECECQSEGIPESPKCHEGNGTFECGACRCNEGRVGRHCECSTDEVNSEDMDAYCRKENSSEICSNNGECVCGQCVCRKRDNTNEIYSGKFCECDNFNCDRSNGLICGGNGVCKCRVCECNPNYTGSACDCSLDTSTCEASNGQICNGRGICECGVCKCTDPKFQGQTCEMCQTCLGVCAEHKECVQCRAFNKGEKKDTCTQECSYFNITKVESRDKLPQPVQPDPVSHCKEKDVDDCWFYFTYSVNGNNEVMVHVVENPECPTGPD
Protocol: as §1, §2

[7] = molecular target: T6, αvβ6-induced TGF-β activation (Homo sapiens, UniProt P06756+P18564); experiment: TGF-β co-culture assay, SW-β6 cells with MLEC luciferase reporter cells; format: cell-based; conditions: integrin αvβ6
T6 construct: expressed in transfected cells; host or cells: SW480 cells stably transfected with β6 (SW-β6), co-cultured with MLEC reporter cells
Protocol: (§6) SW-β6 cells and MLECs or CHO-αv cells and MLECs were cultured in 96-well plates with test compounds or antibodies for 20 h at 37 °C in a 5% CO2 incubator. […] Measurement of MLEC luciferase production resulting from αvβ6- or αvβ1-mediated TGF-β activation was performed using the Bright-Glo Luciferase Assay System (Promega; Madison, WI, USA) according to manufacturer’s instruction. Luminescence was quantified by a Tecan Spark 10M plate reader. IC50 curves were generated using Dotmatics software suite with five-parameter logistic curve fitting. Geometric mean IC50 was calculated for each compound from multiple independent analyses.

[8] = system: αvβ1-induced TGF-β activation; experiment: TGF-β co-culture assay, CHO-αv cells with MLEC luciferase reporter cells; format: cell-based, human; conditions: integrin αvβ1
Protocol: as §6

[9] = system: PCLSs prepared from explanted lung tissue from patients with IPF; experiment: Fibrotic gene expression in PCLSs from IPF lung explants; format: cell-based, human
Description: as §3
Human PCLSs were generated from lung tissue explants from patients with IPF undergoing transplant surgery and cultured based on previously reported methods (E7-E12). Slices of tissue (400 µm) were cut using a Compresstome VF-300-0Z (Precisionary Instruments; Natick, MA, USA).
as §4, §5

[10] = set-up: method as in PMID 25504994; conditions: patients with IPF; read-out: approximate clinical maximum observed drug concentration (Cmax); cited from earlier work
[11] = 7 days, PLN-74809 200 nM, nintedanib 75 nM, pirfenidone 50 µM, vs DMSO (Fig. 6A)

T1 sequence (P06756 31-992 limits assumed): as the sequence (P06756 31-992 limits assumed) above
T1 sequence (P26012 43-684 limits assumed): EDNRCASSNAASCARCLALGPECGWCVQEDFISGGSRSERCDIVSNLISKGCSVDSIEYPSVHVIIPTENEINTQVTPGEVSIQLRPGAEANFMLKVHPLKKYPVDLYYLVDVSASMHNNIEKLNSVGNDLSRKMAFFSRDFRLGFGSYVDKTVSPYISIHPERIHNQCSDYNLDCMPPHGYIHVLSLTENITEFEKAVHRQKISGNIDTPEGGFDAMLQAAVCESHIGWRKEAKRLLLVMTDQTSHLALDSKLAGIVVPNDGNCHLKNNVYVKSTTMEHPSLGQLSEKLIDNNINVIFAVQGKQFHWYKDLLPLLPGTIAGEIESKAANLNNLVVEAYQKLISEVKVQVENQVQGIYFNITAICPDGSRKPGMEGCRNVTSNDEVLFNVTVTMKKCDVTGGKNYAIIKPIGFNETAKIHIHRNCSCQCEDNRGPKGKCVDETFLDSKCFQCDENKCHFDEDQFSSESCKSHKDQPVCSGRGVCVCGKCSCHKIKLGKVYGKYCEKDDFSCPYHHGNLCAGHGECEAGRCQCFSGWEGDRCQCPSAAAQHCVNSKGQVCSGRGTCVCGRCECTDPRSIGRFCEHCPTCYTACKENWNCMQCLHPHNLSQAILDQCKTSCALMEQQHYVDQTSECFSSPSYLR

CC(C)(C)c1cc(Br)cc([C@H](CC(=O)O)NC(=O)CNC(=O)c2cc(O)cc(NC3=NCC(O)CN3)c2)c1 (stereo partly shown) [CWHM-12, reference compound]
pIC50 [1]: 8.14
Fold selectivity (vs αvβ1) ([1]; ligand binding): 5.6×
pIC50 [2]: 8.21
Fold selectivity (vs αvβ1) ([2]; ligand binding): 4.7×
pIC50 [3]: 8.28
Fold selectivity (vs αvβ1) ([3]; ligand binding): 4.1×
pIC50 [4]: 9.15
Fold selectivity (vs αvβ1) ([4]; ligand binding): 0.5×
inhibition of collagen mRNA expression [5]: no additional reduction
pIC50 [6]: 8.89
Fold selectivity (vs αvβ1) ([6]; ligand binding): 1×
Fold selectivity (vs αvβ1) ([7]; TGF-β activation): 159×
pIC50 [7]: 6.50
Fold selectivity (vs αvβ1) ([8]; TGF-β activation): 1×
pIC50 [8]: 8.70

Cc1cccc(-c2[nH]ncc2-c2ccc(F)c(-c3cnn(CCO)c3)c2)n1 [Compound R-268712, reference compound]
reduction of COL1A1 mRNA expression ([9]; 7-day incubation, Compound A 471 nM, 3G9 0.5 µg/ml, PLN-74809 1.82 µM, ALK5i R-268712 1 µM, vs vehicle (Fig. 1A)): ~ 80%

Cc1cc(C)n(-c2cccc([C@H](CC(=O)O)CN3CC[C@@H](CCc4ccc5c(n4)NCCC5)C3)c2)n1 [GSK3008348, (S)-3-(3-(3,5-Dimethyl-1 H-pyrazol-1-yl)phenyl)-4-((R)-3-(2-(5,6,7,8-tetrahydro-1,8-naphthyridin-2-yl)ethyl)pyrrolidin-1-yl)butanoic acid]
inhibition of collagen mRNA expression [5]: no additional reduction
pIC50 [8]: 7.76

COC(=O)c1ccc2c(c1)NC(=O)/C2=C(\Nc1ccc(N(C)C(=O)CN2CCN(C)CC2)cc1)c1ccccc1 [nintedanib]
Cmax [10]: ~0.075 µM
reduction of COL1A1 mRNA expression [9, 11]: no effect
pIC50 [5]: 6.05
effect on Col1a1 gene expression [5]: did not significantly alter
concentration for 50% reduction in collagen gene expression relative to concentration approximating Cmax [5]: > 10 ×

Cc1ccc(=O)n(-c2ccccc2)c1 [pirfenidone]
Cmax [10]: ~50 µM
reduction of COL1A1 mRNA expression [9, 11]: no effect
pIC50 [5]: 3.17
effect on Col1a1 gene expression [5]: did not significantly alter
concentration for 50% reduction in collagen gene expression relative to concentration approximating Cmax [5]: > 10 ×
